Test [1] concerns 3T3-L1 adipocytes. In words: Insulin resistance in adipocytes: 14C-glucose incorporation into cellular lipid (lipogenesis). Format: cell-based. Conditions: for insulin resistance (insulin stimulation of lipogenesis after preincubation): 3T3-L1 adipocytes, 9 h preincubation with insulin 1.7 μM alone or with E-64 100 μM; for cpm INCORPORATED: 9 h pretreatment (insulin 1.7 μM alone, or insulin 1.7 μM + E-64 100 μM); for FOLD STIMULATION: pretreatment as above. As for the experimental part:
Intact monolayers of 3T3-L1 adipocytes were preincubated in the absence of insulin (control) or for nine hours in the presence of 1.7 μM insulin to induce cellular insulin resistance. […] Following preincubation, the treated monolayers were extensively washed to remove any insulin present from the preincubation period. The monolayers were then incubated with insulin, 0, 0.05, or 10 nM for 30 minutes, followed by the addition of 14C-glucose at a final concentration of 25 mM. Incorporation of the radiolabeled glucose proceeded for 30 minutes, after which the cells were washed, lysed, and the cellular lipids extracted into chloroform:methanol (2:1). The amount of radiolabel incorporated into the cellular lipid was then quantified by liquid scintillation counting, and the results are shown in Table 2. This assay procedure is described in Tarlow et al., J. Cell Biol., 73:332-353, 1977.

Test [2] deals with insulin receptor β subunit. In words: Insulin-induced proteolysis of insulin receptor β subunit, quantitative immunoblot of membranes and cytosol. Format: cell-based. Conditions: 3T3-C2 fibroblasts, 4 h; for β' FRAGMENT % IN CYTOSOL: normalized to maximum β' after eight hours of insulin. As for the experimental part:
Cell monolayers were scraped into 10 mM triethanolamine, 10 mM acetic acid, 1 mM EDTA, pH 7.4. The cells were disrupted in a Dounce homogenizer and subjected to centrifugation at 265,000×g, 70 min. at 4° C. The pellet was retained as cellular membranes and the supernatant was collected as the cytosolic fraction.
The cellular membranes were detergent-extracted and the extracts were subjected to SDS polyacrylamide gel electrophoresis on a 7.5% gel to resolve the intact β subunit (approximate mass 92 kDa).
Transfer of the cellular proteins from the 7.5% acrylamide gel to nitrocellulose was conducted at 18 V for 18 h, and the intact β subunit and β' fragment were detected as previously described (Knutson and Buck, Arch. Biochem. Biophys., 285:197-204, 1991). Briefly, following transfer, the nitrocellulose was blocked by incubation for 1 h with blot buffer (50 mM Tris, 0.2M NaCl, pH 8) containing 4% non-fat dry milk. Following blocking, the nitrocellulose was incubated with an anti-peptide antibody which specifically recognizes the carboxy-terminal 16 amino acid residues of the insulin receptor β subunit. This domain is contained in both the intact β subunit and the β' fragment. This antibody has been fully characterized and affinity purified (Knutson and Buck, ibid.). The antibody concentration was 5 μg/ml in blot buffer containing 1% non-fat dry milk, and the incubation was allowed to proceed for 2 h at room temperature. The unbound antibody was then removed from the nitrocellulose by 3 washes with blot buffer containing 1% non-fat dry milk and 0.05% Tween-20. The nitrocellulose was then incubated with ^125 I-protein A, 0.1 μCi/ml, with the blot buffer containing 1% non-fat dry milk, for 1 h at room temperature. Following a final 5 washes of the nitrocellulose with blot buffer-1% dry milk-0.05% Tween-20, the nitrocellulose was exposed to X-ray film. Autoradiographic intensities were quantitated by densitometric scanning.
Cytosolic β' fragment (approximate mass 61 kDa) was isolated by subjecting the […] to high speed centrifugation, removing the supernatant, subjecting the supernatant to SDS polyacrylamide gel electrophoresis on a 7.5% gel, transferring the cytosolic proteins to nitrocellulose, and detecting the cytosolic β' fragment by quantitative immunoblot (Western blot) analysis as described above. The β' fragment data was normalized to the maximum level of β' fragment detected after eight hours of insulin treatment. The above-described procedure is as described in Knutson, V. P., J. Biol. Chem., 266:15656-15662 (1991).

The subject of test [3] is insulin receptor β subunit. The settings on record: cultured cells chronically treated with high insulin; Knutson, J. Biol. Chem. 266, 1991; cited from earlier work.
Test [4] concerns lean Zucker rats. Conditions: 2.5 mg/kg I.P. every 24 h, data not shown. The source says:
(§1) The injection protocol was initiated when the rats were 14 weeks old, a time when their insulin resistant state was fully manifest. Blood was drawn from the animals at intervals before the beginning of the injection schedule, and at at least one week intervals after initiating the injections. On the first day of the protocol, the fatty rats weighed an average of 416 grams.

Test [5] concerns Zucker fatty rats. Conditions: for SERUM TG: Zucker fatty rats.
Excerpt: as §1

Where [6] appears, read: agent alone (insulin 1.7 μM; leupeptin 10 μg/ml; E-64 100 μM), control 100 ± 13.

Consider three compounds from patent US5545672A, “Treatment of insulin resistance and type 2 diabetes mellitus with a thiol protease inhibitor” (The University of Texas System, priority 1994, dated 1996).

Entries after “also recorded” stand apart in the source; their conditions may differ. Read-outs that look alike come from different tables or passages of the source.

As to `CC(C)C[C@H](NC(=O)[C@H]1O[C@@H]1C(=O)O)C(=O)NCCCCN=C(N)N` [E-64, L-transepoxysuccinyl-leucylamido (4-guanidino) butane], in test [1], the “insulin resistance (insulin stimulation of lipogenesis after preincubation)” value is reported as “ameliorated”. In addition, the “cpm INCORPORATED” value was 600 cpm in test [1] (then insulin 0 nM), 1100 cpm in test [1] (then insulin 0.05 nM) and 3100 cpm in test [1] (then insulin 10 nM). The “FOLD STIMULATION” value in test [1] (insulin 0 nM (baseline)) is reported as 1 fold; in test [1] (insulin 0.05 nM) it was 1.8 fold; in test [1] (insulin 10 nM) it was 5.2 fold. Further, in test [2] (setting [6]), the “β SUBUNIT % IN MEMBRANES” value is recorded as 143 ± 7%. In addition, the “β' FRAGMENT % IN CYTOSOL” value in test [2] (agent alone, control 8 ± 5) is recorded as “Trace”; in test [2] (inhibitor + insulin 1.7 μM) it was “Not detectable; also recorded: non-detectable”. Also, the “production of the insulin receptor fragment β'” value in test [3] is on record as “inhibited”. In test [4], the “effect on triglyceride levels in lean rats” value is “no effect”. Besides, the “effect on the increase in triglyceride levels found in control Zucker fatty rats” value in test [5] (2.5 mg/kg I.P. every 24 h) was “prevented the increase”. For the same compound, the “effect on insulin resistant state in Zucker fatty rats” value in test [5] (2.5 mg/kg I.P. every 24 h, 90 days) was “reduced but did not reverse”. For the same compound, the “SERUM TG” value in test [5] (2.5 mg/kg I.P. every 24 h, day 28, n = 3) worked out at 798 ± 269 mg/dL; in test [5] (2.5 mg/kg I.P. every 24 h, day 56, n = 3) it was 1045 ± 443 mg/dL; in test [5] (2.5 mg/kg I.P. every 24 h, day 89, n = 3), 1093 ± 301 mg/dL; in test [5] (day -4 of protocol (before injections), n = 3) it was 1009 ± 157 mg/dL.

With `CC(=O)N[C@@H](CC(C)C)C(=O)N[C@@H](CC(C)C)C(=O)N[C@H](C=O)CCCNC(=N)N` [Leupeptin, leupeptin], the “β SUBUNIT % IN MEMBRANES” value in test [2] (setting [6]) is 97 ± 7%; in test [2] (inhibitor + insulin 1.7 μM (leupeptin 10 μg/ml; E-64 100 μM)), 120 ± 17%; in test [2] (inhibitor + insulin 1.7 μM (leupeptin 10 μg/ml; E-64 100 μM), listed as leupeptin), “prevented insulin-induced loss”. For the same compound, the “β' FRAGMENT % IN CYTOSOL” value is “Trace” in test [2] (agent alone, control 8 ± 5); “Not detectable” in test [2] (inhibitor + insulin 1.7 μM); “prevented generation” in test [2] (inhibitor + insulin 1.7 μM, listed as leupeptin).

Consider insulin, for which, in test [1], the “insulin resistance (insulin stimulation of lipogenesis after preincubation)” value was “no subsequent stimulation of lipogenesis”. In addition, the “cpm INCORPORATED” value in test [1] (then insulin 0 nM) was 1600 cpm; in test [1] (then insulin 0.05 nM), 1900 cpm; in test [1] (then insulin 10 nM) it was 1800 cpm. Moreover, the “FOLD STIMULATION” value in test [1] (insulin 0 nM (baseline)) came to 1 fold; in test [1] (insulin 0.05 nM), 1.2 fold; in test [1] (insulin 10 nM), 1.1 fold. In addition, the “β SUBUNIT % IN MEMBRANES” value in test [2] (setting [6]) is reported as 80 ± 7%; in test [2] (agent alone (insulin 1.7 μM; leupeptin 10 μg/ml; E-64 100 μM), control 100 ± 13, listed as insulin), “decreased”. Also, the “β' FRAGMENT % IN CYTOSOL” value in test [2] (agent alone, control 8 ± 5) is 62 ± 6%; in test [2] (agent alone, control 8 ± 5, listed as insulin), “increased”.
